Laboratory results: patent US20260137806A1, “INTERCALATING SUGAR MOLECULES” (Xalud Therapeutics, Inc., priority 2022, published 2026)
Several values for one entry are separate records, joined by “and”; a condition that tells them apart may be missing. Identical values can stand only once.

How the values were obtained:
[1] = Kinetic solubility measurements; settings: aqueous buffer, kinetic from dmso stock
[2] = system: NR8383 rat alveolar macrophages; assay: Cellular delivery: pDNA uptake (ddPCR); type: cell-based; settings: LPS-activated NR8383; for pDNA copies per μL cell suspension: D-mannose plus pDNA
Experimental: The cell line used was NR8383 rat alveolar macrophages, which grow as a mixture of suspended and adherent cells. The culture medium was F-12K Medium+15% FBS. The cells were plated in a 24-well format at a seeding density of 4-6×10^5 cells/mL into the wells of a 24-well plate. All conditions were performed in duplicate. The testing conditions used NR8383 cells in both unactivated and activated states. […] Activated macrophages are characteristic of macrophages found in inflammatory disease states. […] Either 0, 1, or 2 μg pDNA was used per well, with or without mannose. The combination of pDNA minus D-mannose serves as pDNA control for all conditions. The combination of pDNA with uncomplexed Mannoquin 38 was completed by adding separate pDNA and Mannoquin 38 solutions to culture. Also, pDNA with complexed Mannoquin 38 were studied wherein pre-incubated pDNA and Mannoquin 38 solutions were added to the culture. Lipofectamine 2000 transfections per manufacturer's instructions was used as a positive control. Separate confirmation of successful transfection with Lipofectamine 2000 has been confirmed. The pDNA solution used was 40 μg/mL pDNA in PBS (herein after “Working pDNA solution”). […] For studies with no pDNA, 100 μL of 1×PBS was added to the appropriate culture wells. For plasmid-only conditions, to the appropriate culture wells, 100 μL of DNA solutions was added, wherein the solution was 50 μL of Working pDNA solution+150 μL of 1×PBS (1 μg pDNA) or 100 μL of Working pDNA solution+100 μL of 1×PBS (2 μg pDNA). For non-complexed test agent conditions, to the appropriate culture wells, 50 μL of each separately prepared solution was added: DNA solution (0, 25, or 50 μL Working pDNA solution+100, 75, or 50 μL 1×PBS, respectively) or test agent solution (25, 25, or 50 μL Test Agent Working solution+75, 75, or 50 μL 1×PBS, respectively). […] PCR reaction was performed and read according to the manufacturer's protocol.

[3] = system: DNA plasmid; assay: Quinacrine-DNA binding saturation (absorbance titration); settings: 4 mM or 8 mM phosphate/citrate buffer; FIG. 3
Experimental: FIG. 2 is a wavelength versus absorbance graph used to study quinacrine-DNA binding. Quinacrine concentrations were held constant under low ionic conditions (10 mM Na^+), and DNA plasmid was titrated. Absorbance was measured at 260 nm (DNA absorbance), 424 nm (quinacrine absorbance), 445 nm (quinacrine absorbance), and 461 nm (isobestic point).
FIG. 3 is a plasmid:quinacrine ratio versus absorbance graph used to study quinacrine-DNA binding saturation. The recovery of absorbance (marked with an arrow) indicates saturation. Saturation occurred at a plasmid/quinacrine ratio of 8 in 4 mM or 8 mM phosphate/citrate buffer.

Structure (SMILES): C[C@]12CC[C@H]3[C@@H](CCC4=CC(=O)CC[C@@]43C)[C@@H]1CC[C@@H]2O [Testosterone]
- solubility at 4 h [1]: 40 µM and 12 µg/mL

Structure (SMILES): O=C[C@@H](O)[C@@H](O)[C@H](O)[C@H](O)CO [D-mannose]
- pDNA copies per μL cell suspension ([2]; 1 μg pDNA): 68 copies per μL cell suspension
- pDNA copies per μL cell suspension ([2]; 2 μg pDNA): 68.4 copies per μL cell suspension
- dose-dependency of uptake based on pDNA level ([2]; agent plus pDNA, not complexed): no dose-dependency

Structure (SMILES): CCN(CC)CCCC(C)Nc1c2ccc(Cl)cc2nc2ccc(OC)cc12 (centres unmarked) [quinacrine]
- plasmid/quinacrine ratio at saturation [3]: 8
